Measurements from PubChem BioAssay (NCI).
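Protocol summary: plate cells (96-well), add compound at 5 concentrations, incubate 48 h, interpolate endpoints linearly. TGI: total growth inhibition.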

Experiments:
Experiment in all cases: NCI anticancer screen, dose series, 48 h
OVCAR-8 ovarian = test system: OVCAR-8 ovarian
NCI-H522 lung = test system: NCI-H522 lung
COLO 205 colon = test system: COLO 205 colon
SK-MEL-28 melanoma = test system: SK-MEL-28 melanoma
EKVX NSCLC = test system: EKVX NSCLC
U251 CNS = test system: U251 CNS
UACC-62 melanoma = test system: UACC-62 melanoma
DU-145 prostate = test system: DU-145 prostate
SF-268 CNS = test system: SF-268 CNS
HL-60(TB) leukemia = test system: HL-60(TB) leukemia

O=C1CCC(=O)N1n1c(Cc2ccccc2)n[nH]c1=O
TGI (OVCAR-8 ovarian): > 100 µM
TGI (NCI-H522 lung): > 100 µM
TGI (COLO 205 colon): > 100 µM
TGI (SK-MEL-28 melanoma): > 100 µM
TGI (EKVX NSCLC): > 100 µM
TGI (U251 CNS): > 100 µM
TGI (UACC-62 melanoma): > 100 µM
TGI (DU-145 prostate): > 100 µM
TGI (SF-268 CNS): > 100 µM

CC1C=C(CCCCCCCCCCCC[C@@H](O)[C@@H]2CC[C@@H]([C@@H]3CC[C@@H](C(O)CCCCCCCCCCCCC4=C[C@H](C)OC4=O)O3)O2)C(=O)O1 (some centres undefined)
TGI (HL-60(TB) leukemia): > 100 µM
TGI (OVCAR-8 ovarian): > 100 µM
TGI (NCI-H522 lung): 39.6 µM
TGI (COLO 205 colon): > 100 µM
TGI (SK-MEL-28 melanoma): > 100 µM
TGI (EKVX NSCLC): > 100 µM
TGI (U251 CNS): > 100 µM
TGI (UACC-62 melanoma): > 100 µM
TGI (SF-268 CNS): > 100 µM

CCOc1cc2c(cc1O)/C(=N\OC)C[C@@H]1[C@@H]2CC[C@]2(C)[C@@H](O)CC[C@@H]12
TGI (OVCAR-8 ovarian): 3.91 µM
TGI (NCI-H522 lung): 0.518 µM
TGI (COLO 205 colon): 40.8 µM
TGI (SK-MEL-28 melanoma): > 60.2 µM
TGI (EKVX NSCLC): > 100 µM
TGI (U251 CNS): 22.8 µM
TGI (UACC-62 melanoma): 24 µM
TGI (DU-145 prostate): > 100 µM
TGI (SF-268 CNS): > 43.3 µM

CC(C)CCCCCCCCCCCCC(=O)NCC(=O)NC1C(C)OC(Nc2ncnc3c2ncn3C)C(O)C1O (centres undefined)
TGI (HL-60(TB) leukemia): 6.08 µM
TGI (OVCAR-8 ovarian): > 100 µM
TGI (NCI-H522 lung): 31.9 µM
TGI (COLO 205 colon): > 100 µM
TGI (SK-MEL-28 melanoma): > 100 µM
TGI (EKVX NSCLC): > 100 µM
TGI (U251 CNS): 11.3 µM
TGI (UACC-62 melanoma): > 100 µM
TGI (SF-268 CNS): > 100 µM

CC(=O)Nc1ccc(-c2nnc(SCC(=O)Nc3ccc([N+](=O)[O-])cc3)o2)cc1
TGI (HL-60(TB) leukemia): > 100 µM
TGI (OVCAR-8 ovarian): 29.9 µM
TGI (NCI-H522 lung): 20.7 µM
TGI (COLO 205 colon): 27.3 µM
TGI (SK-MEL-28 melanoma): 27.7 µM
TGI (U251 CNS): 28 µM
TGI (UACC-62 melanoma): 21.5 µM
TGI (SF-268 CNS): 27.7 µM

C[n+]1c2ccccc2c(/C=N\NS(=O)(=O)c2ccc(O)c(C(=O)O)c2)c2ccccc21
TGI (HL-60(TB) leukemia): 84.2 µM
TGI (OVCAR-8 ovarian): > 100 µM
TGI (NCI-H522 lung): > 100 µM
TGI (SK-MEL-28 melanoma): > 100 µM
TGI (EKVX NSCLC): > 100 µM
TGI (U251 CNS): > 100 µM
TGI (UACC-62 melanoma): > 100 µM
TGI (SF-268 CNS): > 100 µM

CC[C@@]1(O)C(=O)OCc2c1cc1n(c2=O)Cc2c-1nc1ccccc1c2/C=N\NC(=O)CN
TGI (HL-60(TB) leukemia): > 100 µM
TGI (OVCAR-8 ovarian): > 95.5 µM
TGI (NCI-H522 lung): 35.5 µM
TGI (COLO 205 colon): > 100 µM
TGI (SK-MEL-28 melanoma): > 100 µM
TGI (EKVX NSCLC): > 100 µM
TGI (U251 CNS): > 61.5 µM
TGI (UACC-62 melanoma): 0.842 µM
TGI (SF-268 CNS): 16.7 µM

C(/c1ccco1)=c1/nc(-c2ccccc2)n2c1nc1ccccc12
TGI (HL-60(TB) leukemia): > 100 µM
TGI (OVCAR-8 ovarian): > 100 µM
TGI (COLO 205 colon): > 100 µM
TGI (EKVX NSCLC): 6.07 µM
TGI (U251 CNS): > 100 µM
TGI (UACC-62 melanoma): > 100 µM
TGI (DU-145 prostate): > 100 µM
TGI (SF-268 CNS): > 100 µM
